Test results published in patent publication US10392412B2, “Platinum anticancer agents” (THE REGENTS OF THE UNIVERSITY OF CALIFORNIA, priority 2015, dated 2019).

How the values were obtained:
[1] = tested on: A549 cells; test: Cytotoxicity CellTiter-Glo; format: cell-based, human; conditions: read-out: IC50 (50% growth inhibition); A549, Non-small cell lung; 72 hours
Description: (§1) Human cancer cell lines were purchased from UCSF Cell Culture Facility (CCF) or obtained through Material Transfer.
(§2) The range of platinum concentrations used in the studies are 5 μM-100 μM. After 72 hours of treatment, the medium were removed and replaced with 50 μL of the media plus 50 μL of the CellTiterGlo reagent. The number of viable cells in culture will be determined based on quantitation of the ATP present, which is an indicator of the number of active cells. Concentration response graphs were generated for each compound using GraphPad Prism software. The graphs were analyzed using a curve fit for sigmoid dose-response, and IC50 values were derived. The results were expressed as mean IC50 values with the standard error of the mean.

[2] = tested on: AsPC1 cells; test: Cytotoxicity CellTiter-Glo; format: cell-based, human; conditions: read-out: IC50 (50% growth inhibition); AsPC1, Pancreas; 72 hours
Description: as §1, §2

[3] = tested on: DU145 cells; test: Cytotoxicity CellTiter-Glo; format: cell-based, human; conditions: read-out: IC50 (50% growth inhibition); DU145, Prostate; 72 hours
Description: as §1, §2

[4] = tested on: H226 cells; test: Cytotoxicity CellTiter-Glo; format: cell-based, human; conditions: read-out: IC50 (50% growth inhibition); H226, Non-small cell squamous; 72 hours
Description: as §1, §2

[5] = tested on: HCT116 cells; test: Cytotoxicity CellTiter-Glo; format: cell-based, human; conditions: read-out: IC50 (50% growth inhibition); HCT116, Colon; 72 hours
Description: as §1, §2

[6] = tested on: HT29 cells; test: Cytotoxicity CellTiter-Glo; format: cell-based, human; conditions: read-out: IC50 (50% growth inhibition); HT29, Colon; 72 hours
Description: as §1, §2

[7] = tested on: PC3 cells; test: Cytotoxicity CellTiter-Glo; format: cell-based, human; conditions: read-out: IC50 (50% growth inhibition); PC3, Prostate; 72 hours
Description: as §1, §2

[8] = Maximum tolerated dose study: clinical chemistry evaluation (blood cell parameters, Table 6)
Description: The mice used in MTD were given standard chow devoid of added folic acid (low folate diet) (See, Leamon C P et al., J. Pharmacol. Exp. Ther. 327: 918-925). […] Therefore we also designed a MTD study in mice treated with low folate diet. Food consumption on the day before injection (Day −1) was recorded and then it was monitored every other day. […] Blood for clinical chemistry was collected if possible. Liver, kidney and bone marrow were collected. One side of each tissue (except bone marrow) will be fixed in 4-10% formalin for future histology analysis, and the rest of tissue will be cut into pieces, snap frozen, and stored at −80° C. until analysis. Blood samples for clinical chemistry were centrifuged at 8000 rpm for 10 min at 4° C. within 1 hour of collection. Plasma was collected into 1.5 mL eppendorf tubes and stored at −80° C. until analysis. The measured parameters were alanine transaminase (ALT), aspartate transaminase (AST), alkaline phosphatase (ALP), total bilirubin, glucose, blood urea nitrogen (BUN), creatinine, and electrolytes. All experiments were housed in a virus-free, temperature controlled facility on a 12-h light-dark cycle.

[Pt(DMSO)methotrexate(Cl)] [SM-69]
IC50 [1]: 1.2 ± 0.7 µM
IC50 [2]: 7 ± 0.4 µM
IC50 [3]: 1.5 ± 0.2 µM
IC50 [4]: 16.4 ± 13.1 µM
IC50 [5]: 4.8 ± 0.6 µM
IC50 [6]: 5.9 ± 1.6 µM
IC50 [7]: 6.3 ± 1.5 µM
RDWa ([8]; 2.5 mpk i.v. once a week): 30.35
granulocytes (GRAN %) ([8]; 2.5 mpk i.v. once a week): 31.88%
granulocytes (GRAN) ([8]; 2.5 mpk i.v. once a week): 3.55
hematocrit (HCT) ([8]; 2.5 mpk i.v. once a week): 46.20
hemoglobin (HGB) ([8]; 2.5 mpk i.v. once a week): 16.20
lymphocytes (LYM %) ([8]; 2.5 mpk i.v. once a week): 60.70%
lymphocytes (LYM) ([8]; 2.5 mpk i.v. once a week): 6.65
mean corpuscular hemoglobin (MCH) ([8]; 2.5 mpk i.v. once a week): 15.65
mean corpuscular hemoglobin concentration (MCHC) ([8]; 2.5 mpk i.v. once a week): 35.08
mean corpuscular volume (MCV) ([8]; 2.5 mpk i.v. once a week): 44.68
mean platelet volume (MPV) ([8]; 2.5 mpk i.v. once a week): 6.68
monocytes (MONO %) ([8]; 2.5 mpk i.v. once a week): 7.43%
monocytes (MONO) ([8]; 2.5 mpk i.v. once a week): 0.83
platelet count (PLT) ([8]; 2.5 mpk i.v. once a week): 193.00
red blood cell count (RBC) ([8]; 2.5 mpk i.v. once a week): 10.34
red cell distribution width (RDW %) ([8]; 2.5 mpk i.v. once a week): 21.53%
white blood cell count (WBC) ([8]; 2.5 mpk i.v. once a week): 11.03
RDWa ([8]; 5 mpk i.v. once a week): 30.10
granulocytes (GRAN %) ([8]; 5 mpk i.v. once a week): 33.28%
granulocytes (GRAN) ([8]; 5 mpk i.v. once a week): 3.55
hematocrit (HCT) ([8]; 5 mpk i.v. once a week): 47.65
hemoglobin (HGB) ([8]; 5 mpk i.v. once a week): 17.08
lymphocytes (LYM %) ([8]; 5 mpk i.v. once a week): 58.70%
lymphocytes (LYM) ([8]; 5 mpk i.v. once a week): 6.38
mean corpuscular hemoglobin (MCH) ([8]; 5 mpk i.v. once a week): 15.73
mean corpuscular hemoglobin concentration (MCHC) ([8]; 5 mpk i.v. once a week): 35.83
mean corpuscular volume (MCV) ([8]; 5 mpk i.v. once a week): 43.95
mean platelet volume (MPV) ([8]; 5 mpk i.v. once a week): 6.83
monocytes (MONO %) ([8]; 5 mpk i.v. once a week): 8.03%
monocytes (MONO) ([8]; 5 mpk i.v. once a week): 0.88
platelet count (PLT) ([8]; 5 mpk i.v. once a week): 182.25
red blood cell count (RBC) ([8]; 5 mpk i.v. once a week): 10.86
red cell distribution width (RDW %) ([8]; 5 mpk i.v. once a week): 21.93%
white blood cell count (WBC) ([8]; 5 mpk i.v. once a week): 10.80
RDWa ([8]; 7.5 mpk i.v. once a week): 29.67
granulocytes (GRAN %) ([8]; 7.5 mpk i.v. once a week): 36.03%
granulocytes (GRAN) ([8]; 7.5 mpk i.v. once a week): 4.40
hematocrit (HCT) ([8]; 7.5 mpk i.v. once a week): 45.47
hemoglobin (HGB) ([8]; 7.5 mpk i.v. once a week): 16.23
lymphocytes (LYM %) ([8]; 7.5 mpk i.v. once a week): 56.53%
lymphocytes (LYM) ([8]; 7.5 mpk i.v. once a week): 7.07
mean corpuscular hemoglobin (MCH) ([8]; 7.5 mpk i.v. once a week): 15.63
mean corpuscular hemoglobin concentration (MCHC) ([8]; 7.5 mpk i.v. once a week): 35.73
mean corpuscular volume (MCV) ([8]; 7.5 mpk i.v. once a week): 43.80
mean platelet volume (MPV) ([8]; 7.5 mpk i.v. once a week): 6.40
monocytes (MONO %) ([8]; 7.5 mpk i.v. once a week): 7.43%
monocytes (MONO) ([8]; 7.5 mpk i.v. once a week): 0.93
platelet count (PLT) ([8]; 7.5 mpk i.v. once a week): 171.33
red blood cell count (RBC) ([8]; 7.5 mpk i.v. once a week): 10.38
red cell distribution width (RDW %) ([8]; 7.5 mpk i.v. once a week): 21.87%
white blood cell count (WBC) ([8]; 7.5 mpk i.v. once a week): 12.40
